According to patent publication US11744808B2, “Compositions and methods for treating non-alcoholic steatohepatitis” (ALGERNON PHARMACEUTICALS INC., priority 2018, dated 2023):

Experiments:
[1] = system: murine STAM™ model of NASH-HCC; experiment: Murine STAM model of NASH-HCC, second study (Example 2): H&E NAFLD activity scoring and Sirius red fibrosis area; format: in vivo, C57BL/6 mice; conditions: for NAFLD Activity Scores, hepatic steatosis, lobular inflammation and hepatocellular ballooning (conclusion): Bromantane at 40 mg/kg, Cenicriviroc at 30 mg/kg
Procedure: As before, male newborn C57BL/6 mice were used. All mice were born from pathogen-free 14 day-pregnant mice obtained from Japan SLC, Inc. (Hamamatsu, Japan) prior to the start of the study.
(§1) The murine STAM™ model of NASH-HCC was performed according to previously described methods known in the art (Takakura et al, Characterization of non-alcoholic steatohepatitis, Anticancer Res, 34(9):4849-55 (2014); Fujii et al, (2013)). NASH was induced in male mice by a single subcutaneous injection of 200 μg of streptozotocin (STZ, Sigma, Mo., USA) at 2 days after birth and continuous feeding after 4 weeks of age (day 28±2) with a high fat diet (CLEA Japan Inc, Tokyo, Japan) given ad libitum.
Following induction of NASH, the mice were randomized into 7 individual study groups of 8 mice each at 6 weeks of age (day 42±2) based on their body weight, the day before the start of treatment.
One day following randomization, the mice were administered a once-daily oral treatment from 6 weeks of age plus one day (day 43±2, treatment Day 1) to 9 weeks of age. The mice in 6 of the 7 study groups were treated individually with a therapeutic amount of a pharmacologic compound formulated with a pharmaceutically acceptable vehicle. […] The pharmaceutically acceptable vehicle in all groups was 0.5% CMC. […] Individual body weight was measured daily during the treatment period. Survival, clinical signs and behavior of mice were also monitored daily.
In each case, a volume of 10 mL/kg of 0.5% CMC was administered orally with (or without) the active ingredient as noted in Table 3 from 6 to 9 weeks of age. All mice were then sacrificed at 9 weeks of age. Blood samples were collected from all mice and the liver from each mouse was removed for analysis.
(§2) Assessment of Steatohepatitis: Liver cross-sections were subjected to hematoxylin and eosin (H&E) staining using standard techniques for histological assessment of hepatic steatosis, lobular inflammation and hepatocellular ballooning. The level of steatohepatitis severity in each liver cross-section was indicated by NAFLD Activity Scores of: 0 (normal), 1-2 (NAFLD), 3-4 (borderline) or at least 5 (NASH) in 3 randomly selected fields of H&E-stained liver cross-sections of 4 μm thickness at ×50 magnification for evaluation of steatosis and ×200 magnification each for evaluation of inflammation and evaluation of ballooning. The NAFLD Activity Score is the unweighted sum of the following: 1) hepatic steatosis score (0-3); 2) lobular inflammation score ([…]); 3) hepatocellular ballooning score (0-2).
The liver cross-sections of the treated groups were also subjected to Sirius-red staining using standard techniques for histological estimation of the percentage of fibrosis area. For quantitative analysis of fibrosis area, bright field images of Sirius red-stained sections were captured around the central vein using a digital camera (DFC295; Leica, Germany) at 200-fold magnification, and the positive areas in 5 fields/section were measured using ImageJ software (National Institute of Health, USA).
(§3) Values are arithmetic means. Comparison between the study group and positive control group was performed using a two-tailed, heteroscedastic (two-sample unequal variance) Student's T-Test. A P-value of <0.05 was considered statistically significant following a Bonferroni post-hoc statistical correction analysis for multiple groups (Bonferroni Multiple Comparison Test). In this case, the correction factor was 7, corresponding to the number of study groups. Following the usual convention, the P-value classification and statistical significance levels chosen are shown in Table 2 (above) alongside their corresponding classification scores.

[2] = system: murine STAM™ model of NASH-HCC; experiment: Murine STAM model of NASH-HCC, first study (Example 1): H&E NAFLD activity scoring and Sirius red fibrosis area; format: in vivo, C57BL/6 mice; conditions: for hepatocellular ballooning score relative to Vehicle control / NAFLD activity score relative to Vehicle control / fibrosis area (Sirius red-positive area) compared with the Vehicle group: once daily oral, 6 to 9 weeks of age, Bromantane 20 mg/kg, Istradefylline 18 mg/kg; for hepatocellular ballooning score relative to Vehicle control: Irsogladine 1 mg/kg; for NAFLD activity score relative to Vehicle control / fibrosis area (Sirius red-positive area) compared with the Vehicle group: Telmisartan 10 mg/kg
Procedure: Male newborn C57BL/6 mice were used. All mice were born from pathogen-free 14 day-pregnant mice obtained from Japan SLC, Inc. (Hamamatsu, Japan) prior to the start of the study.
as §1
Following induction of NASH, the mice were randomized into 12 individual study groups of 8 mice each at 6 weeks of age (day 42±2) based on body weight, the day before the start of treatment.
One day following randomization, the mice were administered a once-daily oral treatment from 6 weeks of age plus one day (day 43±2, treatment Day 1) to 9 weeks of age (hereinafter known as the “treatment period”). The mice in 11 of the 12 study groups (hereafter known as “treatment groups”) were treated individually with a distinct pharmacologic compound formulated with a pharmaceutically acceptable vehicle. […] The pharmaceutically acceptable vehicle in all groups was 0.5% carboxymethyl cellulose (CMC). […] Individual body weight was measured daily during the treatment period. Survival, clinical signs and behavior of mice were also monitored daily.
In each case, a volume of 10 mL/kg of 0.5% CMC was administered orally with (or without) the active ingredient as noted in Table 1 from 6 to 9 weeks of age until sacrifice. One exception being Trapadil, which was administered orally with one dosing of 120 mg/kg on Day 0 and then at the daily dose of 60 mg/kg starting on treatment Day 1. All mice were then sacrificed at 9 weeks of age. Blood samples were collected from all mice and the liver from each mouse was removed for analysis.
as §2
For quantitative analysis of fibrosis area, bright field images of Sirius red-stained sections were captured around the central vein using a digital camera (DFC295; Leica, Germany) at 200-fold magnification, and the positive areas in 5 fields/section were measured using ImageJ software (National Institute of Health, USA).
as §3, with “12,” for “7,”, “2” for “2 (above)”

[3] = once daily oral, 6 to 9 weeks of age, Bromantane high 40 mg/kg, Bemithyl 200 mg/kg, Cenicriviroc 30 mg/kg, Telmisartan 10 mg/kg
[4] = once daily oral, 6 to 9 weeks of age, Bromantane high 40 mg/kg, Cenicriviroc 30 mg/kg, Bemithyl 200 mg/kg, Telmisartan 10 mg/kg

| SMILES | fibrosis area (Sirius red-positive area) compared with the Vehicle group [1, 3] | NAFLD activity score relative to Vehicle control [1, 4] | hepatocellular ballooning score relative to Vehicle control [2] | NAFLD activity score relative to Vehicle control [2] | fibrosis area (Sirius red-positive area) compared with the Vehicle group [2] | NAFLD Activity Scores, hepatic steatosis, lobular inflammation and hepatocellular ballooning (conclusion) [1] | steatosis score relative to Vehicle control ([1]; once daily oral, 6 to 9 weeks of age, Bromantane high 40 mg/kg, Telmisartan 10 mg/kg) | fibrosis area (Sirius red-positive area) compared with the Vehicle group ([1]; once daily oral, 6 to 9 weeks of age, Bromantane low 20 mg/kg) | NAFLD Activity Scores, hepatic steatosis, lobular inflammation and hepatocellular ballooning (conclusion) ([2]; Istradefylline at 18 mg/kg, Telmisartan at 10 mg/kg oral, compared to the Vehicle group) |
| --- | --- | --- | --- | --- | --- | --- | --- | --- | --- |
| CCSc1nc2ccccc2[nH]1 [Bemithyl, 2-Ethylsulfanyl-1H-benzoimidazole] | particularly statistically significant decrease | statistically significant and clinically relevant composite reduction |  |  |  |  |  |  |  |
| Brc1ccc(NC2C3CC4CC(C3)CC2C4)cc1 (stereo not drawn) [Bromantane, N-(4-Bromophenyl)adamantan-2-amine] | statistically significant decreases | Statistically significant reductions | Statistically significant reductions | Statistically significant reductions | significant decreases | showed improvement | Statistically significant reductions | statistically significant decreases |  |
| CCCCOCCOc1ccc(-c2ccc3c(c2)/C=C(/C(=O)Nc2ccc([S@@+]([O-])Cc4cncn4CCC)cc2)CCCN3CC(C)C)cc1 [Cenicriviroc] | statistically significant decreases | Statistically significant reductions |  |  |  | showed improvement |  |  |  |
| Nc1nc(N)nc(-c2cc(Cl)ccc2Cl)n1 [Irsogladine, 6-(2,5-Dichlorophenyl)-1,3,5-triazine-2,4-diamine] |  |  | Statistically significant reductions |  |  |  |  |  |  |
| CCn1c(=O)c2c(nc(/C=C/c3ccc(OC)c(OC)c3)n2C)n(CC)c1=O [Istradefylline, 8-[(E)-2-(3,4-dimethoxyphenyl)vinyl]-1,3-diethyl-7-methyl-3,7-dihydro-1H-purine-2,6-dione] |  |  | Statistically significant reductions | Statistically significant reductions | significant decreases |  |  |  | showed improvement |
